Measured values published in patent US8916584B2 (Vanderbilt University, priority 2010, dated 2014).

These molecules were tested against T1, mGluR4 (Homo sapiens, UniProt Q14833) (assay: mGluR4 potentiation assay (fluorometric plate reader, compound then EC20 agonist); species for the tabulated values not stated). Details: EC50 for potentiation of mGluR4; EC20 concentration of agonist.
T1 construct: expressed in transfected cells; host or cells: CHO cells (human mGluR4) or HEK cells (rat mGluR4 with GIRK)
Assay type: cell-based
Description: The disclosed compounds and compositions can be evaluated for their ability to act as a potentiator of metabotropic glutamate receptor activity, in particular mGluR4 activity, by any suitable known methodology known in the art. For example, Chinese Hamster Ovary (CHO) cells transfected with human mGluR4 or HEK cells co-transfected with rat mGluR4 and the G-protein regulated Inwardly Rectifying Potassium channel (GIRK) were plated in clear bottom assay plates for assay in a Hamamatsu FDSS Fluorometric Plate Reader. The cells were loaded with either a Ca2+-sensitive fluorescent dye or the thallium responsive dye and the plates were washed and placed into a suitable kinetic plate reader. For human mGluR4 assays, a fluorescence baseline was established for 3-5 seconds, the disclosed compounds were then added to the cells, and the response in cells was measured. Approximately two and a half minutes later, a concentration of mGluR4 orthosteric agonist (e.g. glutamate or L-AP4) eliciting approximately 20% (EC20) of the maximal agonist response was added to the cells, and the response was measured. Two minutes later, a concentration of mGluR4 agonist (e.g. glutamate or L-AP4) eliciting 80% (EC80) of the maximal agonist response was added to the cells, and the response was measured. For rat mGluR4/GIRK experiments, a baseline was established for approximately five seconds, disclosed compounds were added, and either an EC20 or EC80 concentration of agonist was added approximately two and one half minutes later. Potentiation of the agonist response of mGluR4 by the disclosed compounds was observed as an increase in response to the EC20 concentration of agonist in the presence of compound compared to the response to agonist in the absence of compound. Similarly, antagonism of the agonist response of mGluR4 by the disclosed compounds was observed as a decrease in response to the EC80 concentration of agonist in the presence of compound compared to the response to agonist in the absence of compound.
The above described assay operated in two modes. In the first mode, a range of concentrations of the disclosed compounds are added to cells, followed by a single fixed concentration of agonist. If the compound acts as a potentiatior, an EC50 value for potentiation and a maximum extent of potentiation by the compound at this concentration of agonist is determined by non-linear curve fitting. If the compound acts as a noncompetitive antagonist, an IC50 value is determined by non-linear curve fitting. In the second mode, several fixed concentrations of the disclosed compounds are added to various wells on a plate, followed by a range in concentrations of agonist for each concentration of disclosed compound. The EC50 values for the agonist at each concentration of compound are determined by non-linear curve fitting. A decrease in the EC50 value of the agonist with increasing concentrations of the sample compound (a leftward shift of the agonist concentration-response curve) is an indication of the degree of mGluR4 potentiation at a given concentration of the sample compound. A decrease in the maximal response of the agonist with increasing concentrations of the sample compounds, with or without a rightward shift in agonist potency, is an indication of the degree of noncompetitive antagonism at mGluR4. The second mode also indicates whether the sample compounds also affect the maximum response to mGluR4 to agonists.

T1 sequence (Q14833 33-912): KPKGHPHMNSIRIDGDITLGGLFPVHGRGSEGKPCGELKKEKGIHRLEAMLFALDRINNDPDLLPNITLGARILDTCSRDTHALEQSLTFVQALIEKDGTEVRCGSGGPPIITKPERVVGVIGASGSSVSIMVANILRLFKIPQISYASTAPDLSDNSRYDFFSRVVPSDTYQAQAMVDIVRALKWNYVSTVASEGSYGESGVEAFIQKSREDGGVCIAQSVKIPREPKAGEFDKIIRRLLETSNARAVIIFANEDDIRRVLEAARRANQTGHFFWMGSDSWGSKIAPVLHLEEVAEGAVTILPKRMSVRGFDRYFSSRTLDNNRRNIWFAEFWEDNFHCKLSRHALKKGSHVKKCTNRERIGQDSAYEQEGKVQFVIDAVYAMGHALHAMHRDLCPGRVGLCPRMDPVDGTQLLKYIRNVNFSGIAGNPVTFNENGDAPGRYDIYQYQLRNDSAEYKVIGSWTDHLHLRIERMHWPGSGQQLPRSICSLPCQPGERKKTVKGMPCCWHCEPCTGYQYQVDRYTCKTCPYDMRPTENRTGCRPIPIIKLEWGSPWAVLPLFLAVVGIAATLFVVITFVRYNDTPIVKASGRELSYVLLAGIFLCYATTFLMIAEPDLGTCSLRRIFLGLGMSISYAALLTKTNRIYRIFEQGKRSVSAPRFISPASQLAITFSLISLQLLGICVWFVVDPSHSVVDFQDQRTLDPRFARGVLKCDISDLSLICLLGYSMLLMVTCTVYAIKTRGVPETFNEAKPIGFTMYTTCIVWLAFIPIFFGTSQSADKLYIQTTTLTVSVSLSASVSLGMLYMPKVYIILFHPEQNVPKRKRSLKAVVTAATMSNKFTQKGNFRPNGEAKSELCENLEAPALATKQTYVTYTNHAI

Compound	EC50
FC(F)(F)c1cccc(Nc2noc3cccnc23)c1 [Example 6, N-(3-(trifluoromethyl)phenyl)isoxazolo[4,5-b]pyridin-3-amine]	434 nM
COc1ccc(Nc2noc3cccnc23)cc1OC [Example 8, N-(3,4-dimethoxyphenyl)isoxazolo[4,5-b]pyridin-3-amine]	4340 nM
FC(F)Oc1cccc(Nc2noc3cccnc23)c1 [Example 2, N-(3-(difluoromethoxy)phenyl)isoxazolo[4,5-b]pyridin-3-amine]	364 nM

The remaining lines, values ahead:

EC50	Compound
2100 nM	COc1cc(Nc2noc3cccnc23)ccc1Cl [Example 7, N-(4-chloro-3-methoxyphenyl)isoxazolo[4,5-b]pyridin-3-amine]
893 nM	Fc1ccc(Nc2noc3cccnc23)cc1Cl [Example 3, N-(3-chloro-4-fluorophenyl)isoxazolo[4,5-b]pyridin-3-amine]
78.8 nM	COc1ccc(Nc2noc3cccnc23)cc1Cl [Example 5, N-(3-chloro-4-methoxyphenyl)isoxazolo[4,5-b]pyridin-3-amine]
651 nM	Fc1cccc(Nc2noc3cccnc23)c1 [Example 9, N-(3-fluorophenyl)isoxazolo[4,5-b]pyridine-3-amine]
209 nM	Clc1cccc(Nc2noc3cccnc23)c1 [Example 1, N-(3-chlorophenyl)isoxazolo[4,5-b]pyridin-3-amine]
4610 nM	Clc1ccc(Nc2noc3cccnc23)cc1Cl [Example 4, N-(3,4-dichlorophenyl)isoxazolo[4,5-b]pyridin-3-amine]

Same assay, conditions: EC50 for potentiation of mGluR4; unit inferred, exponent notation

Compound	EC50
c1cnc2c(Nc3ccc4c(c3)OCO4)noc2c1 [Example 19, N-(benzo[d][1,3]dioxol-5-yl)isoxazolo[4,5-b]pyridin-3-amine]	1000 nM
FC(F)C(F)(F)Oc1cccc(Nc2noc3cccnc23)c1 [Example 26]	4040 nM
FC(F)(F)Oc1cccc(Nc2noc3cccnc23)c1 [Example 18, N-(3-(trifluoromethoxy)phenyl)isoxazolo[4,5-b]pyridin-3-amine]	1170 nM
c1ccc(Nc2noc3cccnc23)cc1 [Example 17, N-phenylisoxazolo[4,5-b]pyridin-3-amine]	2030 nM
Fc1ccc2onc(Nc3cccc(Cl)c3)c2n1 [Example 27, N-(3-chlorophenyl)-5-fluoroisoxazolo[4,5-b]pyridin-3-amine]	153 nM
O=S(=O)(Cc1ccccc1Cl)n1ccc(Nc2noc3cccnc23)c1 [Example 16, N-(1-((2-chlorobenzyl)sulfonyl)-1H-pyrrol-3-yl)isoxazolo[4,5-b]pyridin-3-amine]	89.2 nM
CC(=O)c1cccc(Nc2noc3cccnc23)c1 [Example 22, l-(3-(isoxazolo[4,5-b]pyridin-3-ylamino)phenyl)ethanone]	3660 nM
COc1ccc(Nc2noc3ccccc23)cc1Cl [Example 33, N-(3-chloro-4-methoxyphenyl)benzo[d]isoxazol-3-amine]	7030 nM
Fc1cccc(Nc2noc3ccccc23)c1 [Example 31, N-(3-fluorophenyl)benzo[d]isoxazol-3-amine]	4090 nM
Clc1cccc(Nc2noc3ccccc23)c1 [Example 30, N-(3-chlorophenyl)benzo[d]isoxazol-3-amine]	1140 nM

More lines, now with the values ahead:

EC50	Compound
468 nM	COc1cc(Nc2noc3cccnc23)ccc1F [Example 24, N-(4-fluoro-3-methoxyphenyl)isoxazolo[4,5-b]pyridin-3-amine]
590 nM	Cc1cc(Nc2noc3cccnc23)ccc1Cl [Example 20, N-(4-chloro-3-methylphenyl)isoxazolo[4,5-b]pyridin-3-amine]
338 nM	Fc1ccc(Nc2noc3cccnc23)cc1F [Example 23, N-(3,4-difluorophenyl)isoxazolo[4,5-b]pyridin-3-amine]
